Experimental data taken from US9119821B2, “Use of methionine sulfoximine to treat acute liver failure and other diseases caused by an inflammatory cytokine response” (priority 2010, dated 2015).
Read-outs that look alike come from different tables or passages of the source.

Legend:
MLP 29 cells = experiment: Flow cytometry of apoptosis induced by TNF-α plus actinomycin D; assay type: cell-based, mouse
Description: Output of multiparametric FACS analyses. Mouse liver progenitor cells, MLP 29, are incubated for one hour with either no addition (first lane, FIG. 3C(a)), 9 mM MSO (second lane, FIG. 3C(b)), or 9 mM BSO (third lane, FIG. 3C(c)), then exposed for 10 hours to either no addition—(BAS, first column), TNF-α plus actinomycin D (second column), or actinomycin D alone (third column). Viable cells (V) are delimited by the quadrant. Apoptotic cells display mitochondrial depolarization (reduced TMRM staining) and/or expose phosphatidylserine on their surface (increased Annexin V-FITC staining). Propidium iodide-positive, i.e. dead cells (PI), are evaluated on a PI vs TMRM diagram (not shown); these cells are excluded from the reported plots, but the percentage of propidium iodide positive (i.e. dead) cells is shown in each box (PI), as is the percentage of viable cells (V);
Samples were analyzed on a FACSCalibur flow cytometer (Becton Dickinson, San Diego, Calif.). Data acquisition was performed using CellQuest software and data analysis with WinMD1 software. Each experiment was repeated at least four times.

[1] = target: γ-glutamylcysteine synthetase (GGCS) (Mus musculus, UniProt P97494); conditions: liver extracts from LPS/D-GalN treated mice; 50 mg/kg; data not shown
Chain of γ-glutamylcysteine synthetase (GGCS) (P97494 whole entry): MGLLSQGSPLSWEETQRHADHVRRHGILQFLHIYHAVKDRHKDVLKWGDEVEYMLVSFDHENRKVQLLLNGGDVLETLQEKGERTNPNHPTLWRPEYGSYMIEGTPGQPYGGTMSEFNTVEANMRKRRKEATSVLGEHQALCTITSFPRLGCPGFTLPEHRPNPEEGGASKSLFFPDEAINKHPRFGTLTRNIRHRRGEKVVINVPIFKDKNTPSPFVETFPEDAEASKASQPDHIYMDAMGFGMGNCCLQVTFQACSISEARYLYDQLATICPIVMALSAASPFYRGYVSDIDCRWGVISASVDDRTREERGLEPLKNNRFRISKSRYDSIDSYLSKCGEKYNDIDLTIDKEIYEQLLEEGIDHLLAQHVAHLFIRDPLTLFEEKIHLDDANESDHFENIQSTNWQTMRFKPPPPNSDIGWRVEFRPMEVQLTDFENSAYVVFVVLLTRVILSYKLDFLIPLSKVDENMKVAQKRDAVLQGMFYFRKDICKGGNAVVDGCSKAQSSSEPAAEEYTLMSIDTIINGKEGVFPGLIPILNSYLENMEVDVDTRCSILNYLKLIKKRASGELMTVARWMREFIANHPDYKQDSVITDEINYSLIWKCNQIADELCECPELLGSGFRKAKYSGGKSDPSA
Chain of γ-glutamylcysteine synthetase (GGCS) (O09172 whole entry partner): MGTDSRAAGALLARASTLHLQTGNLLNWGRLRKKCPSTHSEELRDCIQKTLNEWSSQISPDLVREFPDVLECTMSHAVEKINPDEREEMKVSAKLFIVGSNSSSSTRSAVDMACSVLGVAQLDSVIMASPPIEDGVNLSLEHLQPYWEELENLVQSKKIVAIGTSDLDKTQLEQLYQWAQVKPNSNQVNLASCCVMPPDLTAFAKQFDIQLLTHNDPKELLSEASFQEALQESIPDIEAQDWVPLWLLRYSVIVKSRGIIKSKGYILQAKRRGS
Description: (§1) Tissue and plasma were collected from male mice, which were divided into two groups. One group was injected with saline three hours prior to LPS/D-GalN injections. The second group was given MSO three hours prior to being injected with LPS/D-GalN. Control mice (t=0) were treated with MSO or saline for 3 hours and then euthanized (not exposed to LPS/D-GalN). After LPS/D-GalN injection at time zero, tissue and plasma samples were collected at one-hour time intervals from 1 to 5 hours.
To analyze enzyme activities liver homogenates were prepared from liver tissue excised and immediately homogenized in ice-cold buffer consisting of 250 mM sucrose, 10 mM Tris and 0.1 mM EGTA with protease inhibitor cocktail (Sigma #P8340). The homogenized tissue was centrifuged at 2375×g for 5 min. […]
(§2) Glutamine synthetase was assayed as described by Meister, A. Glutamine synthetase from mammalian tissues. […] The reaction with the substrates glutamine and hydroxylamine was stopped using ferric chloride stop solution (0.37 M FeCl3, 0.67 M HCl, 0.20 M TCA) and the colorimetric product formed—γ-glutamyl hydroxamate—was measured at 535 nm. The absorbance values were converted to activities by comparison to a standard curve of pure glutamyl hydroxamate (a generous gift from Arthur J. Cooper, Department of Biochemistry and Molecular Biology, New York Medical College).

peritoneal macrophages [2] = conditions: for TNF-α in culture supernatant, average ELISA value: four hours after LPS, LPS control 527
Description: Peritoneal macrophages were isolated from the abdomens of CD-1 mice, and 2×10^4 cells were added to each well of a 6-well cell culture plate. The cells were incubated in RPMI—1640 (with 2.05 mM glutamine) with 5% fetal calf serum and 1% penicillin/streptomycin (all solutions were from Hyclone) for 4 hours. The medium was then changed to remove any non-adherent cells, and the cells were again incubated in a 5% CO2 incubator for 16 hours. In each plate, one well was a negative control (no treatment), one well was a MSO control (9 mM) and one well was a LPS control (1 μg/ml LPS). The other three wells were treated with 9 mM MSO and 1 μg/ml LPS. One well was treated with MSO for 3 hours, and LPS was then added. In another well, LPS and MSO were added at the same time. Time of LPS addition was considered time zero. Four hours after LPS addition the cell culture medium was collected and 50 μL of the medium was mixed with 50 μl of blocking buffer and used for the TNF-α ELISA assay.
(§3) Macrophages coordinate the early phases of LPS-induced inflammatory response, through the synthesis of TNF-α and other cytokines. In vitro experiments were conducted to directly test if MSO inhibits TNF-α production on LPS-stimulated macrophages obtained from mouse peritoneum. Macrophages were triggered with LPS with or without MSO, wherein the MSO was added either three hours before, one hour after, or at the same time as LPS. Four hours after LPS addition, TNF-α in the culture supernatant was quantitated by ELISA, as described in Methods.

STAT3 = conditions: liver homogenates; both LPS/D-GalN treated and untreated mice
Description: Immunoblots of cleaved caspase-3 and phospho-STAT proteins: Liver homogenates were prepared from male mice five hours after IP administration of LPS/D-GalN. […] Glyceraldehyde-3-phosphate dehydrogenase (GAPDH—Chemicon, Milano, Italy) was used as a loading control).

peritoneal macrophages [3] = conditions: 9 mM MSO, over the time course of the macrophage experiments
Description: as §3

glutamine synthetase = target: T1, glutamine synthetase (Mus musculus, UniProt P15105); experiment: Glutamine synthetase activity in liver extracts of treated mice; assay type: in vivo
T1 construct: liver homogenates were prepared from liver tissue excised and immediately homogenized; from tissue; host or cells: mouse liver homogenate supernatant
T1 sequence (P15105 2-373 limits assumed): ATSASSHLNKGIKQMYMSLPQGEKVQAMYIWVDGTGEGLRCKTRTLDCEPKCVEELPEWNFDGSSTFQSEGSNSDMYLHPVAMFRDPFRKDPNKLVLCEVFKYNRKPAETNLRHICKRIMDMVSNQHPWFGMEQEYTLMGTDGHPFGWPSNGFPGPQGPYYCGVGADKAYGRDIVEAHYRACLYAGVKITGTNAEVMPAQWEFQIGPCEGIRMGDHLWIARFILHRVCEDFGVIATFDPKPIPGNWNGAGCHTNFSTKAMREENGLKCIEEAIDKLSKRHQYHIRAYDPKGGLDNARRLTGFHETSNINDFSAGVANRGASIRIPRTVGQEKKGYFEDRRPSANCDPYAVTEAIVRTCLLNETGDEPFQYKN
Description: as §1
To analyze enzyme activities liver homogenates were prepared from liver tissue excised and immediately homogenized in ice-cold buffer consisting of 250 mM sucrose, 10 mM Tris and 0.1 mM EGTA with protease inhibitor cocktail (Sigma #P8340). The homogenized tissue was centrifuged at 2375×g for 5 min. The tissue supernatant fraction was frozen on dry ice and stored at −80° C.
as §2

Structure (SMILES): CS(=N)(=O)CC[C@H](N)C(=O)O (stereo partly shown) [MSO, methionine sulfoximine]
- rescue of cells from apoptosis induced by TNF-α (MLP 29 cells): neither MSO nor BSO could rescue cells
- GGCS activity versus saline pre-treated mice [1]: same GGCS activities as extracts from mice pre-treated with saline
- TNF-α in culture supernatant, average ELISA value (peritoneal macrophages [2]; 9 mM MSO added at the same time as LPS (1 μg/ml)): 442 pg/50 μL
- TNF-α in culture supernatant, average ELISA value (peritoneal macrophages [2]; 9 mM MSO added one hour after LPS (1 μg/ml)): 430 pg/50 μL
- TNF-α in culture supernatant, average ELISA value (peritoneal macrophages [2]; 9 mM MSO added three hours before LPS (1 μg/ml), 2 mM glutamine): 393 pg/50 μL
- average reductions in TNF-α (peritoneal macrophages [2]; 9 mM MSO, depending upon the time of addition): 16-25%
- phosphorylated STAT3 (STAT3): decreased
- effect on cell viability (trypan blue) (peritoneal macrophages [3]): no effect
- glutamine synthetase activity relative to animals pre-treated with saline (glutamine synthetase; liver extracts, 50 mg/kg IP three hours prior to LPS/D-GalN, all time points): less than 10%
- inhibition of glutamine synthetase in the liver (glutamine synthetase; long term MSO treatment): 90%
